US20090264383A1, “Inhibitor of Adenylyl Cyclase for Treating a Disorder of the Circadian Rhythm” (Medical Research Council, priority 2006, published 2009)
“Also recorded” adds a separate entry of the source.

Experiments:
Water solubility = assay type: physicochemical
[1] = compared with THFA; cited from earlier work
organotypic SCN slices = assay: Bioluminescence recording of circadian gene expression in organotypic SCN slices (mPer1::luc / PER2::LUC); assay type: cell-based, mice
Procedure: (§1) Per1::luciferase and; Per2-luc transgenic mice were used. For organotypic slice culture, brains were removed from pups 5-10 days old and sectioned at 300 um with a McIlwain “Tissue Chopper.” Slices were sorted and trimmed to contain principally SCN tissue and placed onto a Millipore membrane insert (PICMORG) for culture at 37° C. in 5% CO2 as described previously (Gainer et al, 1998).
Recordings of luciferase activity from organotypic slices of SCN or peripheral tissues were made from 5-7 day old pups from PER2::LUC and, Per1::LUC mice using either photomultiplier assemblies for whole tissue emission or CCD camera for single SCN cell imaging (Hamamatsu Photonics Ltd, U.K.) as described May Wood et al 2006 Curr. Biol. Vol. 16 pp 599-605. cAMP-ELISA kit was purchased from R&D systems (Wiesbaden, Germany). NIH 3T3 cells were cultured as described (Kume et al 1999 Cell Vol 98 pp 193-205) and transfected using Genejuice (Novagen, San Diego, Calif.). […] Drugs were solubilized in medium or dimethylsulfoxide (DMSO) to make stock solutions 50-1000× the working solutions. [DMSO] was never greater than 0.4%. RNA-interference against Epac1 and Epac 2 used pre-validated sequences as instructed (Validated Stealth RNAi, Invitrogen, CA). Western Blots were performed as Reddy et al (2006 Curr. Biol. Vol 16 oo 1107-15). Behavioural rhythms, recorded by running wheel and passive infra-red movement detectors, were analysed in Clocklab (Actimetrics, Evanston Ill.). Central cannulae directed stereotaxically at the SCN and sub-cutaneous minipumps (Alzet® model 1002 pump and brain infusion kit II) for drug infusion were fitted as instructed (Durect Corp. Cupertino, Calif.).
Statistical analysis was performed using Prism GraphPad™ and Statview™. Periods were calculated over ≧3 days recoding For comparative purposes, transcriptional amplitude from PMT recordings was calculated as 100× (post-treatment emission peak-trough/pre-treatment peak-trough). In all cases error bars indicate SEM about the mean where n≧3.

[2] = 1 mM lithium final concentration in human serum; cited from earlier work
inositol monophosphatase = molecular target: T1, inositol monophosphatase (Homo sapiens, UniProt P29218); settings: cited from earlier work
T1 sequence (P29218 1-277): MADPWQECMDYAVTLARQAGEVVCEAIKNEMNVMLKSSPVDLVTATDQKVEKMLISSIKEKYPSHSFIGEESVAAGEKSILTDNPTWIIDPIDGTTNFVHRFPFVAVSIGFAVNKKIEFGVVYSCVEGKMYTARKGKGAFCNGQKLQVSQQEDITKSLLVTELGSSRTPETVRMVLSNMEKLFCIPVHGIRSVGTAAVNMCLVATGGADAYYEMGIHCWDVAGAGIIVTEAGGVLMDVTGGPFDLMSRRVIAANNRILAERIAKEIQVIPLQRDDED

[3] = test system: Slices/3T3 cells/other tissues; settings: 10 mM LiCl2 (slices); 2 mM THFA (slices/3T3 cells/other tissues)
Procedure: as §1

[4] = molecular target: T2, bisphosphate nucleotidase (Homo sapiens, UniProt O95861); settings: cited from earlier work
T2 sequence (O95861 1-308): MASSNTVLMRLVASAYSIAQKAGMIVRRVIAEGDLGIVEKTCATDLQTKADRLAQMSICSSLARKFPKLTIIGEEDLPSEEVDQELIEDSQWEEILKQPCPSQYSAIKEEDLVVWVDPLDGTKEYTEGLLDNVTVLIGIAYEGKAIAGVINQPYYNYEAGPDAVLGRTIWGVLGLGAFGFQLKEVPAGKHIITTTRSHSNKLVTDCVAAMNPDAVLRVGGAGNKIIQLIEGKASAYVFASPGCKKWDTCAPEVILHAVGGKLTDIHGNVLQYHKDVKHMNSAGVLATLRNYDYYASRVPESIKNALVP

[5] = molecular target: T3, inositol polyphosphate 1-phosphatase (Homo sapiens, UniProt P49441); settings: cited from earlier work
T3 sequence (P49441 1-399): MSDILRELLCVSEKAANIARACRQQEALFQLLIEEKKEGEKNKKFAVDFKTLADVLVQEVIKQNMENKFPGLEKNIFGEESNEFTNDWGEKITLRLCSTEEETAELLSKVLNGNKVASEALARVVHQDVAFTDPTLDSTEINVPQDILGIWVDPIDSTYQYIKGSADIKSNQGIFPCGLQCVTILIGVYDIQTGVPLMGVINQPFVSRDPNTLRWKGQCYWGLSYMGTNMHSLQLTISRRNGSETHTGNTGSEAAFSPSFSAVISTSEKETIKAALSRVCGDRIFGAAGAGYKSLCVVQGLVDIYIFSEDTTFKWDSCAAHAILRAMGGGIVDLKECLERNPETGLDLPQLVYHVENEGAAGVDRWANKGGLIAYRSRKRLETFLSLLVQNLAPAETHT

Row | SMILES | water solubility (Water solubility) | solubility (Water solubility; water, read-out: water soluble up to) [mM] | metabolic and chemical stability [1] | effect on circadian period (organotypic SCN slices; wild-type mPer1::luc / PER2::LUC SCN slices) | toxicity [2] | EC50 (inositol monophosphatase) [µM] | appearance of slices / cells / tissues [3] | increase in SCN period in vitro (organotypic SCN slices; 10 mM lithium) [h] | circadian period (organotypic SCN slices; lithium treatment, organotypic slices, concentration not given) | increase in circadian period (organotypic SCN slices; lithium, organotypic tissue extracts) [h] | circadian period (organotypic SCN slices; slices in 10 mM lithium) [h] | EC50 [4] [µM] | EC50 [5] [µM]
1 | Nc1ncnc2c1ncn2C1CCCC1 [9-(cyclopentyl)-adenine, 9-(Cyclopentyl)-adenine] | water soluble | ≥ 125 | greater metabolic and chemical stability than THFA | Reversible period lengthening; also recorded: Period was lengthened |  |  |  |  |  |  |  |  | 
2 | [Li] [Lithium] |  |  |  |  | non-toxic | < 2000 | appear perfectly healthy | 2 to 3 | approximately 26 hours | ~2 | 26 | < 2000 | < 2000
